Data on 27 molecules can be found in US20070021434A1, “NON-NUCLEOSIDE ANTI-HEPACIVIRUS AGENTS AND USES THEREOF” (Migenix Inc., priority 2005, published 2007).

The structures appear in SMILES notation. A value given as a limit tells only on which side of the number the result lay.

This experiment addresses HCV RdRp (NS5B) (UniProt P26663). Format: biochemical, hepatitis C virus.

As a reminder, the IC50 is the concentration that inhibits the measured activity by half. Higher therefore signals a need for much substance.

Chain of HCV RdRp (NS5B) (P26663 whole entry, looked up): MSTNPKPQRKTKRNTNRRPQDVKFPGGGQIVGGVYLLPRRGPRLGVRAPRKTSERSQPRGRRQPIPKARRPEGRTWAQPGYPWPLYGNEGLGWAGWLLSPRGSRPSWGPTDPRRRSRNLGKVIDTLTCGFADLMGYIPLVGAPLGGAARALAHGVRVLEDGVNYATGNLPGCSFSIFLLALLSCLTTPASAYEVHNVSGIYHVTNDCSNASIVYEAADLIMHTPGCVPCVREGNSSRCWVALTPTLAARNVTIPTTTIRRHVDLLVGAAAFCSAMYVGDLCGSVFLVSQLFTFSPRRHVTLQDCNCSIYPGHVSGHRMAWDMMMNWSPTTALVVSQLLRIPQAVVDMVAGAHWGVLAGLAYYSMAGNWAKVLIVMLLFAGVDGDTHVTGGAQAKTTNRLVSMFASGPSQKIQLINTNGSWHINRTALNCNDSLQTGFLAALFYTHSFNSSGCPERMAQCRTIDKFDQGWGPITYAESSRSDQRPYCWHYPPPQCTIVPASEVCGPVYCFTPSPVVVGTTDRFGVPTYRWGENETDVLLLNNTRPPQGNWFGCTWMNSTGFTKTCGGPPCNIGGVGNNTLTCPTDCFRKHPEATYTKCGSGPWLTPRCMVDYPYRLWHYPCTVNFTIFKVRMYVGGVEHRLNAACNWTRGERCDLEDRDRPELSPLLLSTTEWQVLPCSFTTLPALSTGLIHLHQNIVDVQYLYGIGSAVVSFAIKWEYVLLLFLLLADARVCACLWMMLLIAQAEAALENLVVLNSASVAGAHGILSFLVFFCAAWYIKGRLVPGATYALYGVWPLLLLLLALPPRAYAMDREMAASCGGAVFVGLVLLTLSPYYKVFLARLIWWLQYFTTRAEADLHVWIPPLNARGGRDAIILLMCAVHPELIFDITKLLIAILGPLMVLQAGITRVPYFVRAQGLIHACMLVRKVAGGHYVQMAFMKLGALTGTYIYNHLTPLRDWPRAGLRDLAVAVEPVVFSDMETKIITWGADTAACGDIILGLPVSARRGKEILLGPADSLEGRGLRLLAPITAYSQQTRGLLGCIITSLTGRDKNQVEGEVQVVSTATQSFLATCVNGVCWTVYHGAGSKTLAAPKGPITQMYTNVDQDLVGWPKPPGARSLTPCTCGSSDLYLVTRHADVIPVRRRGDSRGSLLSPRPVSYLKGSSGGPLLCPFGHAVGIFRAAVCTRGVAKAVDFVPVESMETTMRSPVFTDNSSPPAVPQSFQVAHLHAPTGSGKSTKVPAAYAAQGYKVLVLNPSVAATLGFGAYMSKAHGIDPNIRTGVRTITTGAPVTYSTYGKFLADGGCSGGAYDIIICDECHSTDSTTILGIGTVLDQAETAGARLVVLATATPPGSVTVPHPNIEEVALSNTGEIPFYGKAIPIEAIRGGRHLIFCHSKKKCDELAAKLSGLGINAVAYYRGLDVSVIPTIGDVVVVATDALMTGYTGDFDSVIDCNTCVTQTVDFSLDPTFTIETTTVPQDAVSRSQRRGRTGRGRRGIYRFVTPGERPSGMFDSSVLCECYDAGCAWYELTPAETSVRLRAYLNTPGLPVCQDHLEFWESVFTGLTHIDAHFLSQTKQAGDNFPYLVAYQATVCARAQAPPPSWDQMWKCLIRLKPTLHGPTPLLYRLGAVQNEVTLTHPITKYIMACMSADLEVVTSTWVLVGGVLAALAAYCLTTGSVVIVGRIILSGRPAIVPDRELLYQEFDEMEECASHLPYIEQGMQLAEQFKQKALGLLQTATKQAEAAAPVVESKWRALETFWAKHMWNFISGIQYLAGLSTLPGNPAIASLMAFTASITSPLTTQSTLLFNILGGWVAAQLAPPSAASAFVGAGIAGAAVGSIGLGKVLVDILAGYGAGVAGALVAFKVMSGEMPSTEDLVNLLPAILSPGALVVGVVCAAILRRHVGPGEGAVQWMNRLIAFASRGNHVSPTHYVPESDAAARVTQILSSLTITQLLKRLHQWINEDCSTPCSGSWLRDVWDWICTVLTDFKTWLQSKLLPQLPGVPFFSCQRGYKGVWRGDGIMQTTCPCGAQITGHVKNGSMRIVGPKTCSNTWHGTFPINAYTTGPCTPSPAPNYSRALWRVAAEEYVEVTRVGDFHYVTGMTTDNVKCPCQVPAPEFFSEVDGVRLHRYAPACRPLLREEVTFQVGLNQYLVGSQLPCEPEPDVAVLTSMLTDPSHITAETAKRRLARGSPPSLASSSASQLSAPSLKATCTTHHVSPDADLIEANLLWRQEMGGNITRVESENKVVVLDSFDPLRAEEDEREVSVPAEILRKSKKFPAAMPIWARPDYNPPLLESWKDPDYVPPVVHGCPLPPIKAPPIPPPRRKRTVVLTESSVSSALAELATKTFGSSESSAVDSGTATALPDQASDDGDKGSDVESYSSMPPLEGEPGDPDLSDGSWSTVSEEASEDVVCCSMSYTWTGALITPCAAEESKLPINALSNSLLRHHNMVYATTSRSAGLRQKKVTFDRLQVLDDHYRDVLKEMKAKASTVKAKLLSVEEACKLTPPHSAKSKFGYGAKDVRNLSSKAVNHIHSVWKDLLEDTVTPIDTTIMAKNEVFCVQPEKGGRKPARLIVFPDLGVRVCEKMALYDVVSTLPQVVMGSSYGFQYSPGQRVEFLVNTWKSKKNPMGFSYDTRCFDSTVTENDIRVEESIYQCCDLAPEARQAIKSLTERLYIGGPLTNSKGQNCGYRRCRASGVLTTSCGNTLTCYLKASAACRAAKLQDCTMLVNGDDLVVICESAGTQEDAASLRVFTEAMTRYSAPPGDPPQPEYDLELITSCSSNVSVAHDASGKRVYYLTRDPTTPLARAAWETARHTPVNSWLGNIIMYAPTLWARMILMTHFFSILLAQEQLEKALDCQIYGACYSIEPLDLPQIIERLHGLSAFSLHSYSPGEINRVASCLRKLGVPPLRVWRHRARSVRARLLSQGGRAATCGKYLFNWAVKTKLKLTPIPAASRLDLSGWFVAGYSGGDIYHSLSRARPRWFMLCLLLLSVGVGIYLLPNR

`Cc1ccc(NC(=O)[C@H](CCCCN)NS(=O)(=O)c2ccc(Cl)cc2)cc1` [Compound 391, (S)-6-AMINO-2-(4-CHLORO-BENZENESULFONYLAMINO)-HEXANOIC ACID P-TOLYLAMIDE]: the IC50 was over 50 µM.

Molecule `Cc1ccc(NC(=O)[C@H](CCCCN)NC(=O)COc2ccccc2)cc1` [Compound 328, (S)-^6-AMINO-^2-(^2-PHENOXY-ACETYLAMINO)-HEXANOIC ACID P-TOLYLAMIDE] returned an IC50 of over 50 µM.

Turning to `Cc1ccc(NC(=O)[C@H](CCCCN)NS(=O)(=O)c2ccccc2)cc1` [Compound 387, (S)-6-AMINO-2-BENZENESULFONYLAMINO-HEXANOIC ACID P-TOLYLAMIDE], the IC50 was over 50 µM.

The molecule `Cc1ccc(NC(=O)C(CCCCN)NC(=O)Nc2cccc(Cc3ccccc3)c2)cc1` [Compound 212, (S)-6-AMINO-2-[3-(3-BENZYL-PHENYL)-UREIDO]-HEXANOIC ACID P-TOLYLAMIDE] showed an IC50 of 10 to 50 µM.

Molecule `Cc1ccccc1NC(=O)C(CCCCN)NC(=O)OCC1c2ccccc2-c2ccccc21` [Compound 45, (S)-(5-AMINO-1-O-TOLYLCARBAMOYL-PENTYL)-CARBAMIC ACID 9H-FLUOREN-9-YLMETHYL ESTER] registered an IC50 of over 50 µM.

`Cc1ccc(NC(=O)C(CO)NC(=O)OCC2c3ccccc3-c3ccccc32)cc1` [Compound 375, (R)-(2-HYDROXY-1-P-TOLYLCARBAMOYL-ETHYL)-CARBAMIC ACID 9H-FLUOREN-9-YLMETHYL ESTER] displayed an IC50 of over 50 µM.

The molecule `Cc1cc2cc(NC(=O)[C@H](CCNC(=O)CN)NC(=O)Nc3ccc(OCc4ccccc4)cc3)ccc2[nH]1` [Compound 241, (S)-4-(2-AMINO-ACETYLAMINO)-2-[3-(4-BENZYLOXY-PHENYL)-UREIDO]-N-(2-METHYL-1H-INDOL-5-YL)-BUTYRAMIDE] displayed an IC50 of under 10 µM.

`Cc1ccc(NC(=O)C(CCCCN)NC(=O)Nc2ccc(CN(C)c3ccc([N+](=O)[O-])cc3)cc2)cc1` [Compound 251, (S)-6-AMINO-2-[3-(4-{[METHYL-(4-NITRO-PHENYL)-AMINO]-METHYL}-PHENYL)-UREIDO]-HEXANOIC ACID P-TOLYLAMIDE] displayed an IC50 of under 10 µM.

Regarding `Cc1ccc(NC(=O)[C@H](CCCCN)NS(=O)(=O)c2ccc3ccccc3c2)cc1` [Compound 69, (S)-6-AMINO-2-(NAPHTHALENE-2-SULFONYLAMINO)-HEXANOIC ACID P-TOLYLAMIDE], the IC50 is over 50 µM.

As to `COc1ccc(-c2ccccc2)cc1NC(=O)NC(CCCCN)C(=O)Nc1ccc(C)cc1` [Compound 93, (S)-6-AMINO-2-[3-(4-METHOXY-BIPHENYL-3-YL)-UREIDO]-HEXANOIC ACID P-TOLYLAMIDE], the IC50 is over 50 µM.

With `Cc1ccc(NC(=O)[C@H](CCCCN)NC(=O)Nc2cccc(OCc3ccccc3)c2)cc1` [Compound 204, (S)-6-AMINO-2-[3-(3-BENZYLOXY-PHENYL)-UREIDO]-HEXANOIC ACID P-TOLYLAMIDE], the IC50 was over 50 µM.

With `Cc1ccc(NC(=O)[C@H](CCCCN)NC(=O)COc2ccc(Oc3ccccc3)cc2)cc1` [Compound 333, (S)-6-AMINO-2-[2-(4-PHENOXY-PHENOXY)-ACETYLAMINO]-HEXANOIC ACID P-TOLYLAMIDE], the IC50 is over 50 µM.

As for `O=C(CC1CNCCN1C(=O)NCc1ccc(Cl)cc1)Nc1ccc(C2CCCCC2)cc1` (stereo not drawn) [Compound 159, 2-[(4-CYCLOHEXYL-PHENYLCARBAMOYL)-METHYL]-PIPERAZINE-1-CARBOXYLIC ACID 4-CHLORO-BENZYLAMIDE], the IC50 is 10 to 50 µM.

Molecule `COC(=O)[C@H](Cc1c[nH]c2ccccc12)NC(=O)C(CCCCN)NC(=O)OCC1c2ccccc2-c2ccccc21` (stereo partly drawn) [Compound 58, (S)-2-[6-AMINO-2-((9H-FLUOREN-9-YLMETHOXYCARBONYL)AMINO)-HEXANOYL-(R)-AMINO]-3-(1H-INDOL-3-YL)-PROPIONIC ACID METHYL ESTER] registered an IC50 of over 50 µM.

As for `Cc1ccc(NC(=O)C2(NC(=O)OCC3c4ccccc4-c4ccccc43)CCCNC2)cc1` (stereo not drawn) [Compound 109, (3-P-TOLYLCARBAMOYL-PIPERIDIN-3-YL)-CARBAMIC ACID 9H-FLUOREN-9-YLMETHYL ESTER], the IC50 is over 50 µM.

`Cc1ccc(NC(=O)C(CCCCN)NC(=O)NCCc2ccc(-c3ccccc3)cc2)cc1` [Compound 76, (S)-6-AMINO-2-[3-(2-BIPHENYL-4-YL-ETHYL)-UREIDO]-HEXANOIC ACID P-TOLYLAMIDE] displayed an IC50 of 10 to 50 µM.

The molecule `NCCCC[C@H](NC(=O)OCC1c2ccccc2-c2ccccc21)C(=O)Nc1ccc(-c2ccccc2)cc1` [Compound 143, (S)-[5-AMINO-1-(BIPHENYL-4-YLCARBAMOYL)-PENTYL]-CARBAMIC ACID 9H-FLUOREN-9-YLMETHYL ESTER] displayed an IC50 of under 10 µM.

In the case of `Cc1ccc(NC(=O)[C@@H](CCCCN)NC(=O)OCC2c3ccccc3-c3ccccc32)cc1` [Compound 20, (S)-(5-AMINO-1-P-TOLYLCARBAMOYL-PENTYL)-CARBAMIC ACID 9H-FLUOREN-9-YLMETHYL ESTER], the IC50 is 10 to 50 µM.

For `Cc1ccc(NC(=O)C(CCN)NC(=O)OCC2c3ccccc3-c3ccccc32)cc1` [Compound 108, (S)-(3-AMINO-1-P-TOLYLCARBAMOYL-PROPYL)-CARBAMIC ACID 9H-FLUOREN-9-YLMETHYL ESTER], the IC50 was over 50 µM.

For the molecule `Cc1ccc(NC(=O)[C@H](CCCCN)NC(=O)Nc2ccc(F)cc2)cc1` [Compound 43, (S)-6-AMINO-2-[3-(4-FLUORO-PHENYL)-UREIDO]-HEXANOIC ACID P-TOLYLAMIDE], the IC50 is over 50 µM.

`Cc1ccc(NC(=O)C(CCCCN)NC(=O)COc2cccc(C(F)(F)F)c2)cc1` [Compound 332, (S)-6-AMINO-2-[2-(3-TRIFLUOROMETHYL-PHENOXY)-ACETYLAMINO]-HEXANOIC ACID P-TOLYLAMIDE] came in with an IC50 of over 50 µM.

`Cc1ccc(NC(=O)[C@H](CCCCN)NC(=O)COc2ccc(I)cc2)cc1` [Compound 327, (S)-6-AMINO-2-[2-(4-IODO-PHENOXY)-ACETYLAMINO]-HEXANOIC ACID P-TOLYLAMIDE] gave an IC50 of over 50 µM.

Turning to `Cc1ccc(NC(=O)C(CCCCN)NC(=O)Cc2ccc3ccccc3c2)cc1` [Compound 48, (S)-6-AMINO-2-(2-NAPHTHALEN-2-YL-ACETYLAMINO)-HEXANOIC ACID P-TOLYLAMIDE], the half-maximal inhibitory concentration (IC50) was over 50 µM.

As to `CC(C)(C)c1ccc(NC(=O)[C@H](Cc2ccc(CN)cc2)NC(=O)Nc2ccc(-c3ccccc3)cc2)cc1` [Compound 150, (S)-3-(4-AMINOMETHYL-PHENYL)-2-(3-BIPHENYL-4-YL-UREIDO)-N-(4-TERT-BUTYL-PHENYL)-PROPIONAMIDE], the IC50 is under 10 µM.

Turning to `Cc1ccc(NC(=O)[C@H](CCCCN)NC(=O)CNCc2ccccc2Cl)cc1` [Compound 347, (S)-6-AMINO-2-[2-(2-CHLORO-BENZYLAMINO)-ACETYLAMINO]-HEXANOIC ACID P-TOLYLAMIDE], the IC50 was over 50 µM.

For the molecule `CC[C@H](NC(=O)OCC1c2ccccc2-c2ccccc21)C(=O)Nc1ccc(CN(C(=O)c2ccco2)C2CCCCC2)cc1` [Compound 28, (S)-[1-(4-{[CYCLOHEXYL-(FURAN-2-CARBONYL)-AMINO]-METHYL}-PHENYLCARBAMOYL)-PROPYL]-CARBAMIC ACID 9H-FLUOREN-9-YLMETHYL ESTER], the IC50 was over 50 µM.

For the molecule `Cc1ccc(NC(=O)[C@H](CCCCN)NC(=O)Nc2ccc(OCc3ccc(F)c(F)c3)cc2)cc1` [Compound 288, (S)-6-AMINO-2-{3-[4-(3,4-DIFLUORO-BENZYLOXY)-PHENYL]-UREIDO}-HEXANOIC ACID P-TOLYLAMIDE], the IC50 is 10 to 50 µM.
